Experimental findings from patent US20230140522A1, “COMPOSITION FOR AMELIORATING OR PREVENTING DECREASES IN BONE STRENGTH” (priority 2020, published 2023) are described below.

Experiment [1] relates to osteoprogenitor cell MC3T3-E1. The experiment in a line: Alkaline phosphatase (osteoblast differentiation marker) activity after ornithine addition, MC3T3-E1. The format is cell-based. The following applies: 7 days culture, vs no addition of ornithine. How it is done: The cells were placed in a T-75 flask using a medium and cultured in a CO2 incubator (5% CO2, 37° C.). The medium was changed every other day, and the cells were collected when they reached 80% confluence and used for the test.
(§1) The cells were adjusted with medium to 1.2x10^5 cells/0.2 mL/well and seeded in a 48-well plate. […] After culturing for 7 days, the cells were washed once with PBS for ALP activity measurement and then cryopreserved together with the plate. In addition, after culturing for 14 days, the culture supernatant was sampled for measurement of the amount of osteocalcin used in the below-mentioned Experimental Example 2, and cryopreserved. The test was performed with n=5 and the medium was changed every 3-4 days.
The cells were washed with PBS and lysed with 60 µL/well of cell lysing agent (Cell-LyEX1 containing 2 mM PMSF). After stirring the plate at room temperature for 30 min, the supernatant was diluted 5-fold and the obtained solution was used as a sample for measurement. ALP activity in the cells was measured by LabAssay ALP. With this kit, ALP activity was measured from the amount of p-nitrophenol per unit amount of protein produced within a given period of time. The amount of protein in the solution was measured using Micro BCA Protein Assay Reagent Kit.
(§2) The test was a two-sided test with Student’s t-test, and P<0.05 (less than 5% of null hypothesis) or more was judged as significant difference. The data in the graph is shown in mean±standard error.

Experiment [2] concerns osteoprogenitor cell MC3T3-E1. The experiment in a line: Osteocalcin (osteoblast differentiation marker) production amount after ornithine addition, MC3T3-E1. The format is cell-based. Particulars: ornithine 5.0 mg/mL, 14 days culture, culture supernatant, vs no addition of ornithine. As for the experimental part: as §1
For the measurement of the amount of osteocalcin in the culture supernatant, the supernatant was diluted 10-fold and the measurement was performed using Mouse Osteocalcin EIA kit.
as §2

Experiment [3] concerns osteoprogenitor cell MC3T3-E1. Kind of experiment: Alkaline phosphatase activity after ornithine addition, MC3T3-E1, influence of BMP-2 concentration. The following applies: ornithine 5 mg/mL, 7 days, vs ornithine no addition. The format is cell-based. As for the experimental part:
The cells were placed in a 10 cm petri dish using a medium and cultured in a CO2 incubator (5% CO2, 37° C.). The medium was changed every other day, and the cells were collected when they reached 80% confluence and used for the test.
The cells were adjusted with medium to 1.2x10^5 cells/0.2 mL/well and seeded in a 48-well plate. […] After 7 days, the cells were washed once with PBS, 50 µL of 0.1% Triton-X was added, and the mixture was further sonicated for 1 min to prepare a cell lysate. The test was performed with n=4 and the medium was changed every 3-4 days.
ALP activity of the above-mentioned cell lysate was measured by LabAssay ALP. With this kit, ALP activity was measured from the amount of p-nitrophenol per unit amount of protein produced within a given period of time. The amount of protein in the solution was measured using Micro BCA Protein Assay Reagent Kit.
as §2

In experiment [4] the test system is osteoclast progenitor cell RAW264. The experiment in a line: Osteoclast number measurement (TRAP staining) after ornithine addition, RAW264. Particulars: 50 ng/mL RANKL, 7 days, vs ornithine non-addition. Type of experiment: cell-based. As for the experimental part: The cells were placed in a T-75 flask using a medium and cultured in a CO2 incubator (5% CO2, 37° C.). The medium was changed every other day, and the cells were collected when they reached 80% confluence and used for the test. Cells were prepared in a test medium at 3x10^3 cells/0.1 mL/well and seeded in a 96 well plate. […] After culturing for 7 days, TRAP staining was performed, and TRAP staining-positive and multinucleated cells were counted, based on which the ability to suppress differentiation into osteoclasts was examined by comparison. The medium was changed every 3-4 days. The test was performed with n=5. The test was a two-sided test with Student’s t-test, and P<0.05 (less than 5% of null hypothesis) or more was judged as significant difference. The data in the graph is shown in mean±standard error.

Experiment [5] concerns osteoporosis-disuse muscle atrophy simultaneous onset mouse model. The experiment in a line: Gastrocnemius muscle weight, osteoporosis-disuse muscle atrophy simultaneous onset mouse model. The format is in vivo. The following applies: OVX mice with cast fixation, ornithine 1% blended feed, vs OVX (ornithine non-administration with cast fixation) group.

For `Cl.NCCC[C@H](N)C(=O)O` [ornithine, L-Ornithine Monohydrochloride], the alkaline phosphatase activity result in experiment [1] (ornithine 0.2 mg/mL), in experiment [1] (ornithine 1.0 mg/mL), in experiment [1] (ornithine 5.0 mg/mL), in experiment [3] (BMP-2 50 ng/mL), in experiment [3] (BMP-2 100 ng/mL) and in experiment [3] (BMP-2 200 ng/mL) was “significantly increased” throughout. In experiment [2], the osteocalcin production amount result was “significantly increased”. For the same compound, the number of osteoclasts entry was “decreased” in experiment [4] (ornithine 0.02 mg/mL), “significantly decreased” in experiment [4] (ornithine 0.1 mg/mL) and “significantly decreased” in experiment [4] (ornithine 0.5 mg/mL). Besides, in experiment [5], the “gastrocnemius muscle weight (per body weight)” value is reported as “increased”.
